We go through one compound from patent US20260325500A1, “METHODS AND COMPOSITIONS FOR TREATING ACUTE STRESS DISORDER” (BioXcel Therapeutics, Inc., priority 2022, published 2026).

For the assay, the system named is mouse behavior (SmartCube signature). The assay is described as follows: SmartCube system behavioral classification (Example 6). Particulars: IP. Type of assay: in vivo, Male C57/B16 mice. The source says: Dexmedetomidine and latrepirdine have anti-psychotic effects, when tested in the SmartCube® system (Psychogenics, Inc., Paramus, NJ; See also U.S. Pat. No. 7,580,798 incorporated herein by reference in its entirety). This system uses features derived from mouse behavioral data to first, classify mice on compound versus vehicle. This measure indicates how well the system can differentiate between a mouse on compound versus a mouse on vehicle. Secondly, by comparing the features to a proprietary reference database of behavioral feature sets that are linked to classes of marketed drugs known to treat neuro-psychiatric symptoms SmartCube® assigns a signature to the behavior. Thus, the system can be used as a model to identify both the activity and the psychiatric effect of a compound by comparing the effects of the compounds against drugs with known validated effects.
By comparing the responses of animals to known drugs, the test drug can be categorized according to its function; for example, hallucinogen, anxiogenic, analgesic, cognitive enhancer, psychostimulant, mood stabilizer, high dose anti-psychotic, anti-psychotic, sedative/hypnotic, anxiolytic, high dose antidepressant, antidepressant.
Once all features are extracted from the raw data through an automated pipeline, proprietary bioinformatics algorithms are used to decorrelate groups of features and find the combination of values that best separate different groups of interest. For each compound, at each dose, they system provides a probability that the drug is active and breaks down such putative activity into the different classes of interest.
SmartCube reference data used herein include anti-psychotics and anti-depressants tested at several dose ranges. “Anti-psychotic” versus “high dose anti-psychotic” as indicated in the legend, reflects the notion that anti-psychotics reference data is dose dependent. Anti-psychotics, when administered at higher doses, can engage additional receptor systems, and thus affect mouse behavior differently. The same applies for different doses of anti-depressants.
Animals: Male C57/B16 mice (N=12 per group) from Taconic Laboratories were used. Upon receipt, mice were group-housed in OPTI mouse ventilated cages with 4 mice per cage. Mice were acclimated to the colony room for at least one week prior to test and subsequently tested at approximately 8-9 weeks of age. All animals were examined, handled, and weighed prior to initiation of the study to assure adequate health and suitability and to minimize non-specific stress associated with manipulation.
All compounds tested were formulated in NP3 (vehicle solution): 5% Pharmasolve; 30% P3 (1:1:1 PEG200: PEG400: propylene glycol); 65% saline; pH is 5.1-6.
Test groups were: • Vehicle: NP3 • Dexmedetomidine at 0.005 and 0.010 mg/kg • Latrepirdine at 1 and 10 mg/kg • Dexmedetomidine and latrepirdine combinations (in mg/kg): 0.005/1.0; 0.005/10; 0.010/1.0; 0.010/10
Test compounds were injected intraperitoneally (IP) for 15 min before animals were placed in SmartCube for assessment.
Antipsychotic: SmartCube classifies the mouse behavior with test compound as similar to treatment with marketed anti-psychotics at therapeutically relevant doses.
High Dose Antipsychotic: SmartCube classifies the mouse behavior on test compound as similar to treatment with marketed anti-psychotics at doses that are considered as high therapeutically. High doses of anti-psychotics often cause sedation.
The results for the class analyses are presented as standardized bar charts with percentages that sum to 100 for each dose. The percentage indicates the probability the classifier can differentiate between the vehicle group and test group. The pattern indicates what class signature was assigned.

In the case of `Cc1ccc2c(c1)c1c(n2CCc2ccc(C)nc2)CCN(C)C1` [latrepirdine, 2,8-dimethyl-5-[2-(6-methylpyridin-3-yl)ethyl]-3,4-dihydro-1H-pyrido[4,3-b]indole], under “1 and 10 mg/kg”, the SmartCube signature entry is given as “antipsychotic signature”. In addition, the SmartCube total activity reads like this: (latrepirdine 1.0 mg/kg) 20%; (latrepirdine 10 mg/kg) 80%.
